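All cell lines were grown in 96-well plates and treated with compound for 48 hours. TGI: total growth inhibition.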
Assays:
Experiment in all cases: NCI tumour cell line growth inhibition, 48 h
LOX IMVI melanoma = system: LOX IMVI melanoma
SF-539 CNS = system: SF-539 CNS
M14 melanoma = system: M14 melanoma
UACC-62 melanoma = system: UACC-62 melanoma
HT29 colon = system: HT29 colon
HCT-116 colon = system: HCT-116 colon
PC-3 prostate = system: PC-3 prostate
NCI-H226 lung = system: NCI-H226 lung
CAKI-1 renal = system: CAKI-1 renal
KM12 colon = system: KM12 colon
MDA-N = system: MDA-N
K-562 leukemia = system: K-562 leukemia

Compound | TGI (LOX IMVI melanoma) [µM] | TGI (SF-539 CNS) [µM] | TGI (M14 melanoma) [µM] | TGI (UACC-62 melanoma) [µM] | TGI (HT29 colon) [µM] | TGI (HCT-116 colon) [µM] | TGI (PC-3 prostate) [µM] | TGI (NCI-H226 lung) [µM] | TGI (CAKI-1 renal) [µM] | TGI (KM12 colon) [µM] | TGI (MDA-N) [µM] | TGI (K-562 leukemia) [µM]
O=C(O)CC1OCC=C2CN3CCC45C6=CC(=O)C(=O)C([N+](=O)[O-])=C6NC4C1C2CC35 (stereo not drawn) | > 100 | > 100 | > 100 | > 100 | > 100 | > 100 | > 100 | > 100 | > 100 | > 100 | > 100 | > 100
O=C(/C=C/c1ccccc1)CSc1nc2ccc(I)cc2c(=O)n1Cc1ccccc1 | > 100 | > 100 | > 100 | > 100 | > 100 | > 100 | > 96.4 | > 84.4 | 3.74 | > 100 | > 100 | > 100
COc1cc2c(cc1OC)C(C)N(C)c1c-2c(OC(C)=O)cc2cc(OC)c(OC)cc12 (stereo not drawn) | 39.8 | 40.6 | 28.2 | 39.3 | > 58.9 | 35.2 | > 90.8 | > 44.1 | 49.5 | 34.1 | 38.3 | > 100
CC(C)(C)OC(=O)N/N=C(/N)Cc1ccccc1 | > 100 | > 100 | > 100 | > 100 | > 100 | > 100 | > 100 | > 100 | > 100 | > 100 | > 100 | > 100
COC(=O)[C@@]12C(=O)C(C)C(=O)[C@]1(C)C(C)=C[C@H]1[C@]3(C=O)CC[C@H](OC(C)=O)C(C)(C)[C@H]3CC[C@@]12C (stereo partly drawn) | > 100 | > 100 | > 100 | > 100 | > 100 | > 100 | > 100 | > 100 | > 100 | > 100 | > 100 | > 100
O=c1[nH]c(-c2ccccc2)nc2c1sc1nc3ccccc3n12 | > 100 | > 100 | > 100 | > 100 | > 100 | > 100 | > 100 | > 100 | > 100 | > 100 | > 100 | > 100
CN(C)CCn1c(=O)c2ccc3c4c(nn3CCN(C)C)c3cc(O)ccc3n(c1=O)c24 | 0.101 | 3.15 | 0.846 | 0.585 | 0.262 | 1.08 | 2.98 | 1.44 | 0.291 | 3.5 | 0.603 | 1.56
CCOP(=O)(OCC)C1=C(c2ccccc2)OC(N)=C(C#N)C1c1ccc(Cl)cc1 (stereo not drawn) | > 100 | > 100 | > 100 | > 100 | > 100 | > 100 | > 100 | > 100 | > 100 | > 100 | > 100 | > 100
O=C1/C(=C/c2ccccc2)CCC/C1=C\c1ccc(O)c(CN2CCCCC2)c1 | 4.08 | 8.95 | 26.1 | 10.5 | 4.04 | 2.97 | 13.8 | 16.9 | 18.8 | 4.98 | 8.11 | > 100
O=C1Nc2ccccc2/C1=C/c1c(Cl)[nH]c2ccc(O)cc12 | 27.8 | 2.16 | 11 | 6.04 | 12.1 | 19.4 | 16.3 | 5.12 | 36 | 15.6 | 1.6 | 17.1
O=C(/C=C/c1ccc(Cl)cc1)c1cccs1 | 24.3 | > 100 | 36.3 | 49.2 | > 100 | 33.8 | 32.8 | 44.5 | 45.2 | 31.1 | 31.6 | > 100
COc1cccc2c1C(=O)c1ccc3cc(CCl)cc(O)c3c1C2=O | 0.595 | 0.701 | 0.743 | 0.687 | 0.578 | 0.29 | 0.973 | 1.78 | 1.7 | 0.339 | 0.765 | 2.49
Cn1cnc(N2CCCC2)c(C#N)c1=O | > 100 | > 100 | > 100 | > 100 | > 100 | > 100 | > 100 | > 100 | > 100 | > 100 | > 100 | > 100
O=C1C(=C(I)I)c2ccccc2-c2ccccc21 | 5.26 | 3.61 | 9.15 | 10.7 | 12.2 | 6.55 | 13.5 | 36.4 | 7.12 | 24.6 | 4.6 | > 34.9
CC(=O)N(CN1C(=O)CCC1C(=O)O)c1cccc(O)c1 (stereo not drawn) | > 100 | > 100 | > 100 | > 100 | > 100 | > 100 | > 100 | > 100 | > 100 | > 100 | > 100 | > 100
Cn1c(=O)c2c(ncn2CCCCOc2ccc3c(c2)[n+]([O-])nc(N)[n+]3[O-])n(C)c1=O | > 100 | 70 | > 100 | 42 | > 100 | > 100 | > 100 | 79.6 | > 100 | > 100 | > 100 | > 100
CCOc1cc2c(cc1OC(C)=O)C(=O)CC[C@H]1C3CC[C@H](OC(C)=O)[C@@]3(C)CC[C@H]21 (stereo partly drawn) | > 100 | > 100 | > 100 | > 100 | > 100 | > 100 | > 100 | > 100 | > 100 | > 100 | > 100 | > 100
Cc1ccc(S(=O)(=O)Nn2c(S)c(C#N)c(-c3ccc([N+](=O)[O-])cc3)c(C#N)c2=O)cc1 | 28.5 | 35.4 | > 100 | 98.2 | > 100 | 32.8 | > 100 | > 100 | > 100 | > 100 | 73.1 | 53.2
Nc1nc(N)c2[nH]cnc2n1 (tested in a mixture with another compound) | > 100 | > 100 | 36.2 | 24.9 | > 100 | 41.8 | 94.6 | > 100 | > 100 | > 100 | > 100 | > 100
COC1=CC(=O)c2c(O)c3c(c(O)c2C1=O)C=C(C)OC3O (stereo not drawn) | 1.9 | 3.4 | 0.845 | 1.85 | 2.7 | 2.3 | 16.3 | 8.24 | 14.5 | 12.2 | 3.08 | 5.07
CC(C)/C(Cl)=N\OC(=O)Nc1ccc(F)cc1F | 3.32 | 30.6 | 13.3 | 38.7 | 15.8 | 15.7 | 31.6 | 29.8 | 34.3 | 35.1 | 22.7 | > 100
COC(=O)C1CCC(=O)N1C(c1ccccc1)c1cc(OC)c(OC)c(OC)c1 (stereo not drawn) | > 100 | > 100 | > 100 | > 100 | > 100 | > 100 | > 100 | > 100 | > 100 | > 100 | 58.8 | 49.9
COC(=O)C1=C(C)NC(C)=C(C(=O)OC)C1c1cccc(NO)c1 | 29.9 | 32.6 | 33.2 | 34.3 | 32.4 | 26.4 | 30.4 | 40.7 | 26.1 | 29.4 | 28.5 | > 100
COC(C)(C)CCc1[nH]c2ccccc2c1CC(=O)NCCc1cncn1C | > 100 | > 100 | > 100 | > 100 | > 100 | > 100 | > 100 | > 100 | > 100 | > 100 | > 100 | > 100

— PubChem BioAssay (NCI)
